Assay results reported in ChEMBL document CHEMBL1157188, “Structure-activity relationship of truncated analogs of caprazamycins as potential anti-tuberculosis agents” (2008).
Converted amounts (≈) assume the structure as drawn.

Legend:
[1] = tested on: Mycobacterium tuberculosis; experiment: Antimicrobial activity against Mycobacterium tuberculosis H37Rv by almar blue assay; type: functional
[2] = tested on: Mycolicibacterium smegmatis; experiment: Antimicrobial activity against Mycobacterium smegmatis; type: functional

Structure (SMILES) | MIC50 [1] | MIC [2]
CCCCCCCCCCCCCCCC(=O)OC[C@H](NC(=O)[C@@H](N)[C@H](O[C@@H]1O[C@H](CN)[C@@H](O)[C@H]1O)[C@H]1O[C@@H](n2ccc(=O)[nH]c2=O)[C@H](O)[C@@H]1O)C(=O)O | 6.25 µg/mL (≈ 8.08 µM) | 
CCCCCCCCCCCCCCCC(=O)O[C@H]1CN(C)[C@@H]([C@H](O)[C@H]2O[C@@H](n3ccc(=O)[nH]c3=O)[C@H](O)[C@@H]2O)C(=O)N(C)[C@@H]1C(=O)O | > 100 µg/mL | 
CCCCCCCCCCCCCCCC(=O)O[C@H]1CN(C)[C@@H]([C@@H](C)O[C@@H]2O[C@H](CN)[C@@H](O)[C@H]2O)C(=O)N(C)[C@@H]1C(=O)O | > 100 µg/mL | 
CO[C@@H]1[C@@H](OC)[C@H](C)O[C@@H](OC(=O)C[C@@H](C)CC(=O)O[C@@H](CCCCCCCCCC(C)C)CC(=O)O[C@H]2CN(C)[C@@H]([C@H](O[C@@H]3O[C@H](CN)[C@@H](O)[C@H]3O)[C@H]3O[C@@H](n4ccc(=O)[nH]c4=O)[C@H](O)[C@@H]3O)C(=O)N(C)[C@@H]2C(=O)O)[C@@H]1OC |  | 1.56 µg/mL (≈ 1.38 µM)
CN1C[C@H](O)[C@@H](C(=O)O)N(C)C(=O)[C@@H]1[C@H](O[C@@H]1O[C@H](CN)[C@@H](O)[C@H]1O)[C@H]1O[C@@H](n2ccc(=O)[nH]c2=O)[C@H](O)[C@@H]1O [CAPRAZOL] | > 100 µg/mL | 
CCCCCCCCCCCCCCCC(=O)O[C@H]1CN(C)[C@@H]([C@H](O[C@@H]2O[C@H](CN)[C@@H](O)[C@H]2O)[C@H]2O[C@@H](n3ccc(=O)[nH]c3=O)[C@H](O)[C@@H]2O)C(=O)N(C)[C@@H]1C(=O)O [PALMITOYL CAPRAZOL] | 2.5 µg/mL (≈ 3.07 µM) | 6.25 µg/mL (≈ 7.68 µM)
